# Assay results: patent US4503055A, “Derivatives of [4-(piperazin-1-yl-phenyloxymethyl)-1,3-dioxolan-2-ylmethyl]-1H-imidazol es and 1H-1,2,4-triazoles” (Janssen Pharmaceutica, N.V., priority 1981, dated 1985)
# Experiments:
# Candida albicans [1] = experiment: Activity against crop candidosis in turkeys; format: in vivo; settings: medicated feed for 13 consecutive days from day of infection, crops of 50% of animals completely negative for Candida albicans
# Protocol: Turkeys of 14 days old are infected in the crop with 4.10^6 Candida albicans cells, grown on Sabouraud broth for 48 hours at 37° C. and diluted with saline. The volume of the inoculum is 1 ml. The drugs under investigation are premixed in 500 mg of lacton and thereafter admixed in 1000 g of meal without any additives. The concentration of the drug under investigation in the meal is expressed in mg/kg. The animals are given the medicated feed for 13 consecutive days starting on the day of infection. At the end of the experiment all animals are sacrificed. At autopsy the crops are removed, emptied and grinded in an ultra-turrax mixer in 15 ml of sterile saline. Colony counting is done on Sabouraud agar and the results given in the table represents the ED50, i.e., the dose of the drug whereby the crops of 50% of the animals are completely negative for Candida albicans.
# Candida albicans [2] = experiment: Activity against vaginal candidosis in rats; format: in vivo, Female Wistar rats; settings: 336 h, oral, once a day for two days from day of infection, active at the 14th day after infection, read-out: Vaginal candidosis in rats: lowest effective dose in mg/kg orally
# Protocol: Female Wistar rats of ±100 g body weight are used. They are ovariectomized and hysterectomized and after three weeks of recovery, 100 μg of oestradiol undecylate in sesame oil is given subcutaneously once a week for 3 consecutive weeks. The thus induced pseudooestrus is controlled by microscopic examination of vaginal smears. Food and water are left available ad libitum. The rats are infected intravaginally with 8.10^5 cells of Candida albicans, grown on Sabouraud broth for 48 hours at 37° C. and diluted with saline. The date of infection varies from day +25 to day +32 after surgical intervention, depending on the appearance of signs of induced pseudooestrus. The drugs under investigation are administered orally once a day for two days starting from the day of infection. For each experiment there are placebo treated controls. The results are assessed by taking vaginal smears with sterile swabs on several days after the infection. The swabs are put into Sabouraud broth in petri-dishes and incubated for 48 hours at 37° C. If no growth of Candida albicans occurs, i.e., when the animals are negative at the end of the experiment, this is due to drug administration because it never happens in placebo treated controls. The table below gives the lowest oral dose of the drug under investigation which is found active at the 14th day after infection.
SMILES,Crop candidosis in turkeys: ED50 in mg/kg feed (Candida albicans [1]) [mg/kg feed],minimal effective dose (Candida albicans [2]) [mg/kg]
O=C(C=Cc1ccc(Cl)cc1)N1CCN(c2ccc(OC[C@H]3CO[C@](Cn4cncn4)(c4ccc(Cl)cc4Cl)O3)cc2)CC1,16,
CCOC(=O)COC(=O)N1CCN(c2ccc(OC[C@H]3CO[C@](Cn4ccnc4)(c4ccc(Cl)cc4Cl)O3)cc2)CC1 (relative stereo),31,2.5
Cc1ccccc1NC(=O)CN1CCN(c2ccc(OC[C@H]3CO[C@](Cn4ccnc4)(c4ccc(Cl)cc4Cl)O3)cc2)CC1 (relative stereo),16,2.5
Cc1ccc(NC(=O)CN2CCN(c3ccc(OC[C@H]4CO[C@](Cn5ccnc5)(c5ccc(Cl)cc5Cl)O4)cc3)CC2)cc1 (relative stereo),16,
O=C(CN1CCN(c2ccc(OC[C@H]3CO[C@](Cn4ccnc4)(c4ccc(Cl)cc4Cl)O3)cc2)CC1)Nc1c(Cl)cccc1Cl (relative stereo),31,2.5
Clc1ccc(CN2CCN(c3ccc(OC[C@H]4CO[C@](Cn5ccnc5)(c5ccc(Cl)cc5Cl)O4)cc3)CC2)cc1 (relative stereo),< 31,
Cc1ccc(S(=O)(=O)N2CCN(c3ccc(OC[C@H]4CO[C@](Cn5cncn5)(c5ccc(Cl)cc5Cl)O4)cc3)CC2)cc1 (relative stereo),< 31,
